Molecular target: T1, cCaSR (Felis catus, UniProt C7FF08)
T1 sequence (C7FF08 1-1081): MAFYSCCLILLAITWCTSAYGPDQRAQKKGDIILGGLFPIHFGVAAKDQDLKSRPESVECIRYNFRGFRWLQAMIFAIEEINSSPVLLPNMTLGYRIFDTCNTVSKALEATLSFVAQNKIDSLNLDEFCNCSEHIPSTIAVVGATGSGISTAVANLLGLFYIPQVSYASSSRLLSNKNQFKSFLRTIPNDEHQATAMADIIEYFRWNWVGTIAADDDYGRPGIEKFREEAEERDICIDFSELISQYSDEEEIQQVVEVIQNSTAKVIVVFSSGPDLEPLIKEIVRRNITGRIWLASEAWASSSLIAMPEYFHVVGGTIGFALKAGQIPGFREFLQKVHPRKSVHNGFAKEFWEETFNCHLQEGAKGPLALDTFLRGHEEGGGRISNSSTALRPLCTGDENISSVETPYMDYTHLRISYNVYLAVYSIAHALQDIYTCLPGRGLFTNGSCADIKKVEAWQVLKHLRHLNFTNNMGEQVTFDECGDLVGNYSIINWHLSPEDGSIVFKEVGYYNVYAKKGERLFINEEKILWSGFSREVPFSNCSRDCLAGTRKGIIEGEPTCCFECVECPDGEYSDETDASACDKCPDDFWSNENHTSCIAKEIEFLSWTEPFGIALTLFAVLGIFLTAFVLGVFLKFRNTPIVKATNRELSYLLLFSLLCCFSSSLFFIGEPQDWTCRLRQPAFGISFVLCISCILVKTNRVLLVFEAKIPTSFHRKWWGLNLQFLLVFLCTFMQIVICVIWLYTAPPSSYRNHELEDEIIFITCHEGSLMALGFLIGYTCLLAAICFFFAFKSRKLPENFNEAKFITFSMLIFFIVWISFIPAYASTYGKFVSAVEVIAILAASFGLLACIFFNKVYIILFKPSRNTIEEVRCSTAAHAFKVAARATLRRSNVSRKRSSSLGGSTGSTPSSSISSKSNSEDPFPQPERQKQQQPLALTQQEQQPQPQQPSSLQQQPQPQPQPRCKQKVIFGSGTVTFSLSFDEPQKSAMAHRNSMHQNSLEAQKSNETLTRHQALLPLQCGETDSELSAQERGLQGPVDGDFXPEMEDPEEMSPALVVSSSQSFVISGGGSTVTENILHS
Assay: not given
Conditions: not given

Row | SMILES | EC50 Ago (M) | agonist activity on cCaSR (in words)
1 | N=C(N)NCCC[C@H](N)C(=O)O [L-Arginine] | - | 
2 | CSCC[C@H](N)C(=O)O [L-Methionine] | - | 
3 | NCCNCCCNCCN [N,N'-Bis(2-aminoethyl)-1,3-propanediamine] | - | 
4 | NCCCNCCCCNCCCN [Spermine] |  | agonists

Same assay, conditions: Supplementary Table I, agonist assay, dash = no activity

Row | SMILES | EC50 Ago (M)
5 | N[C@@H](CCP(=O)(O)O)C(=O)O [L-2-Amino-4-phosphonobutyric acid] | -
6 | C[C@H](N)C(=O)O [L-Alanine] | -
7 | COC(=O)[C@@H](N)CCCN=C(N)N [L-Arginine methyl ester] | -
8 | NC(=O)C[C@H](N)C(=O)O [L-Asparagine] | -
9 | N[C@@H](CS)C(=O)O [L-Cysteine] | -
10 | COC(=O)CC[C@H](N)C(=O)O [L-Glutamic Acid 5-Methyl Ester] | -
11 | NC(=O)CC[C@H](N)C(=O)O [L-Glutamine] | -
12 | N[C@@H](Cc1c[nH]cn1)C(=O)O [L-Histidine] | -
13 | N[C@@H](CCO)C(=O)O [L-Homoserine] | -
14 | CC[C@H](C)[C@H](N)C(=O)O [L-Isoleucine] | -
15 | CC(C)C[C@H](N)C(=O)O [L-Leucine] | -
16 | NCCC[C@H](N)C(=O)O [L-Ornithine] | -
17 | O=C(O)[C@@H]1CCCN1 [L-Proline] | -
18 | N[C@@H](C[Se][Se]C[C@H](N)C(=O)O)C(=O)O.O [L-Selenocystine monohydrate] | -
19 | N[C@@H](CO)C(=O)O [L-Serine] | -
20 | C[C@@H](O)[C@H](N)C(=O)O [L-Threonine] | -
21 | N[C@@H](Cc1ccc(O)cc1)C(=O)O [L-Tyrosine] | -
22 | CC(C)[C@H](N)C(=O)O [L-Valine] | -
23 | CN(C)C(N)=NCCC[C@H](N)C(=O)O.Cl.Cl [NG,NG-Dimethylarginine dihydrochloride] | -
24 | COC(=O)[C@@H](N)CCCNC(N)=N[N+](=O)[O-] [NG-Nitro-L-Arginine Methyl Ester] | -
25 | CNC(=N)NCCC[C@H](N)C(=O)O [NG-methyl L Arginine] | -
26 | CC(C)(Cc1ccc2ccccc2c1)NC[C@@H](O)COc1cccc(Cl)c1C#N [NPS 2143, reference compound] | -
27 | COC(=O)[C@@H](N)CCCNC(=N)N[N+](=O)[O-].Cl [Nω-Nitro-L-arginine methyl ester hydrochloride] | -

Molecular target: T1, cCaSR
Assay: cCaSR PAM luminescence assay, double injection with 0.5 mM CaCl2, HEK293/T-REx/natClytin-cCaSR
Conditions: not given

Row | SMILES | EC50 PAM (M)
28 | N=C(N)NCCC[C@H](N)C(=O)O [L-Arginine] | -
29 | CSCC[C@H](N)C(=O)O [L-Methionine] | -
30 | NCCNCCCNCCN [N,N'-Bis(2-aminoethyl)-1,3-propanediamine] | -

Same assay, conditions: Supplementary Table I, PAM assay, dash = no activity

Row | SMILES | EC50 PAM (M)
31 | N[C@@H](CCP(=O)(O)O)C(=O)O [L-2-Amino-4-phosphonobutyric acid] | -
32 | C[C@H](N)C(=O)O [L-Alanine] | -
33 | COC(=O)[C@@H](N)CCCN=C(N)N [L-Arginine methyl ester] | -
34 | NC(=O)C[C@H](N)C(=O)O [L-Asparagine] | -
35 | N[C@@H](CS)C(=O)O [L-Cysteine] | -
36 | COC(=O)CC[C@H](N)C(=O)O [L-Glutamic Acid 5-Methyl Ester] | -
37 | NC(=O)CC[C@H](N)C(=O)O [L-Glutamine] | -
38 | N[C@@H](Cc1c[nH]cn1)C(=O)O [L-Histidine] | -
39 | N[C@@H](CCO)C(=O)O [L-Homoserine] | -
40 | CC[C@H](C)[C@H](N)C(=O)O [L-Isoleucine] | -
41 | CC(C)C[C@H](N)C(=O)O [L-Leucine] | -
42 | NCCC[C@H](N)C(=O)O [L-Ornithine] | -
43 | O=C(O)[C@@H]1CCCN1 [L-Proline] | -
44 | N[C@@H](C[Se][Se]C[C@H](N)C(=O)O)C(=O)O.O [L-Selenocystine monohydrate] | -
45 | N[C@@H](CO)C(=O)O [L-Serine] | -
46 | C[C@@H](O)[C@H](N)C(=O)O [L-Threonine] | -
47 | N[C@@H](Cc1ccc(O)cc1)C(=O)O [L-Tyrosine] | -
48 | CC(C)[C@H](N)C(=O)O [L-Valine] | -
49 | CN(C)C(N)=NCCC[C@H](N)C(=O)O.Cl.Cl [NG,NG-Dimethylarginine dihydrochloride] | -
50 | COC(=O)[C@@H](N)CCCNC(N)=N[N+](=O)[O-] [NG-Nitro-L-Arginine Methyl Ester] | -
51 | CNC(=N)NCCC[C@H](N)C(=O)O [NG-methyl L Arginine] | -
52 | CC(C)(Cc1ccc2ccccc2c1)NC[C@@H](O)COc1cccc(Cl)c1C#N [NPS 2143, reference compound] | -
53 | COC(=O)[C@@H](N)CCCNC(=N)N[N+](=O)[O-].Cl [Nω-Nitro-L-arginine methyl ester hydrochloride] | -
54 | NCCCNCCCCNCCCN [Spermine] | -
